Measured values reported in patent US5898069A, “Phosphate assay” (Medical Research Council, priority 1993, dated 1999).
Values joined by “and” are separate entries in the source; they are usually repeats but may differ in a detail not shown here. Identical values can stand only once. Like-named read-outs stand apart in the source and are kept apart here.

Tests used:
[1] = tested on: purine nucleoside phosphorylase; assay: Phosphorolysis of 7-methyl guanosine by purine nucleoside phosphorylase (Pi mop), absorbance change at 260 nm; format: biochemical, bacterial; conditions: pH 8.0, 20 mM Tris.HCl, 1 μM MgCl2, 30° C.
MDCC-PBP [2] = target: T1, MDCC-PBP (Escherichia coli, UniProt P0AG82, A222C); format: binding, E. coli
T1 construct: A197 is located at position 197 numbering from the N-terminus of the mature PBP; made in house; host or cells: E. coli strain ANCC75, plasmid pSN5182/N, periplasm
T1 sequence (P0AG82 26-346 A222C): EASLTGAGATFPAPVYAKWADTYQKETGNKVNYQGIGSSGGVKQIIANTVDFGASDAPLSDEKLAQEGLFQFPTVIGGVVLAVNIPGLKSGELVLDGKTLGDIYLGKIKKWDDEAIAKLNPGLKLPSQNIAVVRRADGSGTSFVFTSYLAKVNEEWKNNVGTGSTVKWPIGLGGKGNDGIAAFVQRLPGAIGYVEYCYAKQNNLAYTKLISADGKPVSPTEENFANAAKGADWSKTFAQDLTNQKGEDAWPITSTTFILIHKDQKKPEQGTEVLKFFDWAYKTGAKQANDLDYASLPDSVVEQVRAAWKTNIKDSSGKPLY
Procedure: The Pi dependent fluorescence change was measured for a variety of conditions at a single concentration of Pi (Table 2).
(§1) The solutions contained 2 μM MDCCPBP (except for [b] 10 μM and [c]
The fluorescence change was measured at 465 nm with excitation at
[a] The solution was preincubated with the Pi mop.

CPM-PBP = target: T2, CPM-PBP (Escherichia coli, UniProt P0AG82, A222C); format: binding, E. coli
T2 construct: A197 is located at position 197 numbering from the N-terminus of the mature PBP; made in house; host or cells: E. coli strain ANCC75, plasmid pSN5182/N, periplasm
T2 sequence (P0AG82 26-346 A222C): as above
Procedure: Analysis of the effects of Pi analogues and solution composition was performed as for MDCC-PBP.

PBP mutant D292C = target: T3, PBP mutant D292C (Escherichia coli, UniProt P0AG82, D317C); format: binding, E. coli
T3 construct: from the Nterminus of the mature protein; made in house; host or cells: E. coli strain ANCC75, plasmid pSN5182/N, periplasm
T3 sequence (P0AG82 26-346 D317C): as the sequence (P0AG82 26-346 A222C) above, with C197A, D292C counted along it
Excerpt: (e) Using the Pi mop, the fluorescence change was 65%.

MDCC-PBP [3] = target: T1, MDCC-PBP; assay: Titration of arsenate in a solution of MDCC-PBP (fluorescence change); format: binding, E. coli; conditions: read-out: dissociation constant
Excerpt: (§2) Because very small levels of Pi contamination can affect the observed change on adding Pi and because of variability in the protein activity, the maximum percent increase of fluorescence varies from 400-500%0 Although PBP is very specific for Pi (Luecke & Quiocho, 1990), it was to be used as a probe in the presence of other phosphate species, such as esters or purine nucleotides and so it was important to know at what levels these might interfere with Pi measurements. Several Pi analogues were also tested (Table 2) and only arsenate and vanadate produced significant increases. For a titration of arsenate in a solution of MDCC-PBP, the fluorescence change was used to obtain a dissociation constant of 3 μM. In all cases except arsenate, when subsequently Pi was added, the full fluorescent change was observed. The Pi dependent fluorescence change was measured for a variety of conditions at a single concentration of Pi (Table 2). The change is only slightly affected by pH (7-8) or ionic strength.

[4] = Pi dependent fluorescence change of labelled PBP in various solution compositions; format: binding; conditions: for % fluorescence increase: 100 μM Pi added
Procedure: 3.2 μM MDCC-PBP was in 10 mM PIPES, 1 mM MgCl2 (pH 7.0) at 22° C. Pi was added to 50 μM;
as §2, §1
3.2 μM) in 20 mM PIPES (pH 7.0) except where indicated. The solutions
in B had 100 μM Pi added to produce the indicated fluorescence
change. […]

[5] = Stopped-flow kinetics of Pi binding to labelled PBP and its release
Procedure: A. 0.1 μM MDCC-PBP (mixing chamber concentration) in 10 mM PIPES, pH 7.0 was rapidly mixed at 21° C. with different concentrations of Pi in this buffer in a stopped flow apparatus, while fluorescence emission was monitored using a 455 nm cut-off filter, with excitation at 436 nm using a mercury lamp. The curve show a time course with 0.25 μM Pi. […] The best-fit single exponential (65.3 s^-1) is shown by the dashed line, almost completely hidden by the experimental curve.
B. The release kinetics were measured by rapidly mixing 0.125 μM Pi, 0.25 μM MDCC-PBP with 10 μM wild-type PBP (mixing chamber concentrations) at 22° C. Other conditions were as above The best-fit single exponential (21.4 s^-1) is shown by the dashed line, almost completely hidden by the experimental curve;
In order to use the probe to measure Pi release from ATPases and GTPases in real time it was important to know the kinetics of Pi interaction with the labeled protein. Because of the fast rates only part of the exponential is observed: a significant proportion of the reaction occurs during the dead time of the instrument (i.e. the time taken for the solution to flow between mixing and the observation chamber).
The dissociation rate of the MDCC-PBP.Pi complex was measured directly in the stopped flow apparatus by rapid mixing of this complex with excess wild-type PBP. Pi is released from the fluorescent complex and binds to the wild-type protein with a rate constant limited by the rate of release (FIG. 6B). The observed rate was 21.3±0.1 (S.E.M.) s^-1 (22° C., […], pH 7.0) for wild-type concentrations from 1.25 to 10 μM, with 0.25 μM MDCC-PBP and 0.125 μM Pi. Because this rate is constant over a range of wild-type concentrations and because the rate is much slower than that expected for Pi binding, assuming the wild-type PBP has similar rate constant to the MDCC-PBP, the observed rate constant probably represents Pi release.

[6] = Storage stability of labelled protein; format: physicochemical
Excerpt: The Pi -sensitive labeled mutant, MDCC-PBP was purified further and tested as described in the Experimental Procedures to show it was a singly-labeled protein with no unlabeled protein or unbound fluorophore. The further purification is important as the unlabeled protein will also bind Pi. Unbound fluorophore would reduce the percentage fluorescence change by increasing the background and it might also slowly react with or bind to other components in the experimental system. The ion exchange chromatography separated MDCC-PBP completely from unlabeled PBP and unbound fluorophore. Thus the final labeled protein has a ratio of absorbance maxima, 280/430 nm of 1.8. The fluorescence excitation maximum is 425 nm and the emission maximum is 474 nm and the fluorescence change with excess Pi at pH 7.0 for the conditions in FIG. 2 is 5.3-fold with a shift of maximum emission to 464 nm. The labeled protein could be stored at […] and was stable on ice for at least 5 days.

[7] = Fluorescence titration of Pi to labelled PBP to obtain the dissociation constant; format: binding; conditions: for Kd: approximate
Procedure: The solution at 20° C. contained […] MDCC-PBP, 1 mM MgCl2, 10 mM PIPES pH 7.0. Aliquots of Pi were added and the fluorescence emission was measured at 465 nm with excitation at 425 nm. The data was corrected for the small amount of dilution;
The solution at 25° C. in 10 mM PIPES, pH 7.0, 1 mM MgCl2 contained 0.28 μM MDCC-PBP. Aliquots of Pi were added and the fluorescence emission was measured as in FIG. 3.
The fluorescence titrations of Pi with CPM-PBP (and MDCC-PBP) were fitted to the following equations using Enzfitter software:
Ratio of fluorescence at a given [Pi ] to that at zero Pi =(Q[Ep ]+[E]-[Ep ])/[E] where
[E ]P=([P]+[E]+K-√(([P]+[E]+K)^2 -4[P][E]))/2
[E]=concentration of CPM-PBP
Q=ratio of fluorescence for CPM-PBP.Pi to that for the unliganded CPM-PBP
The product was characterized in several ways. […] The dissociation constant was determined by titrating Pi at low [MDCC-PBP] and measuring fluorescence (FIG. 4). […] Because Pi binding is very tight, these dissociation constants can be considered only approximate: the fluorescence titration could not be done at sufficiently low concentrations to obtain accurate values of Kd.

[8] = Competition titration of MDCC-PBP.Pi with wild-type PBP; format: binding
[9] = addition 1 mM, 6 μM CPM-PBP, 10 mM Tris.HCl pH 8.0
[10] = addition 100 μM, 2 μM MDCC-PBP, 20 mM PIPES pH 7.0
[11] = addition 100 μM, 6 μM CPM-PBP, 10 mM Tris.HCl pH 8.0
[12] = addition 100 μM, preincubated with the Pi mop, 2 μM MDCC-PBP, 20 mM PIPES pH 7.0

O=P(O)(O)O [Pi, inorganic phosphate]
Km [1]: 34 µM | % fluorescence increase (MDCC-PBP [2]; pH 7): 430% | % fluorescence increase (CPM-PBP; pH 8): 65%

O=S(=O)([O-])[O-].[Na+].[Na+] [Sodium sulphate]
% fluorescence increase (MDCC-PBP [2]; addition 1 mM, 2 μM MDCC-PBP, 20 mM PIPES pH 7.0): 3% | % fluorescence increase (CPM-PBP; [9]): 0%

Sodium vanadate
% fluorescence increase (MDCC-PBP [2]; [10]): 35% | % fluorescence increase (CPM-PBP; [11]): -2% | % fluorescence increase (CPM-PBP; addition 1.1 mM, 6 μM CPM-PBP, 10 mM Tris.HCl pH 8.0): -11%

O=P(O)(O)OP(=O)(O)O [Pyrophosphate]
% fluorescence increase (MDCC-PBP [2]; pH 7): 6% | % fluorescence increase (CPM-PBP; pH 8): 5%

O=C1C=CC(=O)N1c1ccc(Nc2ccc3cc(S(=O)(=O)O)ccc3c2)cc1 [MIANS, 2[4(1-maleimidyl)anilino]naphthalene6-sulfonic acid]
fluorescence change using the Pi mop (PBP mutant D292C): 65%

O=P(O)(O)OC[C@H]1OC(O)[C@H](O)[C@@H](O)[C@@H]1O (stereo partly shown) [Glucose-6-phosphate]
% fluorescence increase (MDCC-PBP [2]; [12]): 3% | % fluorescence increase (CPM-PBP; [11]): 4%

CC(OP(=O)(O)OP(=O)(O)OP(=O)(O)OC[C@H]1O[C@@H](n2cnc3c(N)ncnc32)[C@H](O)[C@@H]1O)c1ccccc1[N+](=O)[O-] (stereo partly shown) [NPE-caged ATP, P^31-(2-nitrophenyl)ethyl ATP]
% fluorescence increase (MDCC-PBP [2]; addition 5 mM, preincubated with the Pi mop, 10 μM MDCC-PBP, 20 mM PIPES pH 7.0): 0%

Nc1ncnc2c1ncn2[C@@H]1O[C@H](COP(=O)(O)OP(=O)(O)OP(=O)(O)O)[C@@H](O)[C@H]1O [ATP]
% fluorescence increase (MDCC-PBP [2]; addition 100 μM, preincubated with the Pi mop, 10 μM MDCC-PBP, 20 mM PIPES pH 7.0): 2% | % fluorescence increase (MDCC-PBP [2]; addition 1 mM, preincubated with the Pi mop, 10 μM MDCC-PBP, 20 mM PIPES pH 7.0): 11% | % fluorescence increase (CPM-PBP; [11]): 5% | % fluorescence increase (CPM-PBP; [9]): 13%

Nc1ncnc2c1ncn2[C@@H]1O[C@H](COP(=O)(O)OP(=O)(O)O)[C@@H](O)[C@H]1O [ADP]
% fluorescence increase (MDCC-PBP [2]; [12]): 3% | % fluorescence increase (CPM-PBP; [11]): 4%

O=[As]([O-])([O-])O.[Na+].[Na+] [Sodium arsenate]
Kd (MDCC-PBP [3]): 3000 nM | % fluorescence increase (MDCC-PBP [2]; [10]): 313% | % fluorescence increase (CPM-PBP; [11]): 25%

Nc1nc2c(ncn2[C@@H]2O[C@H](COP(=O)(O)OP(=O)(O)O)[C@@H](O)[C@H]2O)c(=O)[nH]1 [GDP]
% fluorescence increase (MDCC-PBP [2]; [12]): 3% | % fluorescence increase (CPM-PBP; [11]): 5%

B1: MDCC-PBP (conjugate, UniProt P0AG82 26-346, looked up)
Phosphate-binding protein PstS: EASLTGAGATFPAPVYAKWADTYQKETGNKVNYQGIGSSGGVKQIIANTVDFGASDAPLSDEKLAQEGLFQFPTVIGGVVLAVNIPGLKSGELVLDGKTLGDIYLGKIKKWDDEAIAKLNPGLKLPSQNIAVVRRADGSGTSFVFTSYLAKVNEEWKNNVGTGSTVKWPIGLGGKGNDGIAAFVQRLPGAIGYVEYAYAKQNNLAYTKLISADGKPVSPTEENFANAAKGADWSKTFAQDLTNQKGEDAWPITSTTFILIHKDQKKPEQGTEVLKFFDWAYKTGAKQANDLDYASLPDSVVEQVRAAWKTNIKDSSGKPLY
modifications: MDCC fluorophore label
% fluorescence increase ([4]; 10 mM PIPES (pH 7.0), 1M NaCl, 3.2 μM MDCC-PBP): 350% | % fluorescence increase ([4]; 10 mM PIPES (pH 7.0), 2 μM MDCC-PBP): 430% | % fluorescence increase ([4]; 10 mM Tris-HCl (pH 8.0), 2 μM MDCC-PBP): 405% | fluorescence change with excess Pi ([4]; pH 7.0, FIG. 2: 3.2 μM MDCC-PBP, 10 mM PIPES, 1 mM MgCl2, 22° C., Pi 50 μM): 5.3 fold | maximum percent increase of fluorescence ([4]; varies with Pi contamination and protein activity): 400-500% | Pi binding, best-fit single exponential ([5]; 0.1 μM MDCC-PBP, 0.25 μM Pi, 10 mM PIPES pH 7.0, 21° C.): 65.3 s⁻¹ | dissociation (Pi release) rate of labelled PBP.Pi complex ([5]; 22° C., PIPES pH 7.0, 0.25 μM MDCC-PBP, 0.125 μM Pi mixed with excess wild-type PBP (1.25 to 10 μM)): 21.3 ± 0.1 s⁻¹ and 21.4 s⁻¹ | k+ (Pi binding rate constant, one step binding model) ([5]; pH 7.0, [Pi]<5μM): 1.36e+08 M⁻¹ s⁻¹ | k- (from fit of observed binding rates) ([5]; pH 7.0, [Pi]<5μM, prone to error): 43 s⁻¹ | stable on ice [6]: at least 5 days | protein active (from linear fluorescence response to Pi) ([7]; FIG. 3, 20° C., 1 mM MgCl2, 10 mM PIPES pH 7.0): 75-80% | maximum fluorescence enhancement ([7]; FIG. 4, 25° C., 10 mM PIPES pH 7.0, 1 mM MgCl2, 0.28 μM MDCC-PBP): 415% | Kd ([7]; pH7.0): 30 nM | Kd ([7]; pH 8.0): 80 nM

B2: wild-type PBP: E. coli phosphate binding protein (PBP), unlabelled wild-type (protein, UniProt P0AG82 26-346, looked up)
Phosphate-binding protein PstS: EASLTGAGATFPAPVYAKWADTYQKETGNKVNYQGIGSSGGVKQIIANTVDFGASDAPLSDEKLAQEGLFQFPTVIGGVVLAVNIPGLKSGELVLDGKTLGDIYLGKIKKWDDEAIAKLNPGLKLPSQNIAVVRRADGSGTSFVFTSYLAKVNEEWKNNVGTGSTVKWPIGLGGKGNDGIAAFVQRLPGAIGYVEYAYAKQNNLAYTKLISADGKPVSPTEENFANAAKGADWSKTFAQDLTNQKGEDAWPITSTTFILIHKDQKKPEQGTEVLKFFDWAYKTGAKQANDLDYASLPDSVVEQVRAAWKTNIKDSSGKPLY
relative affinity for Pi versus the labeled mutant (MDCC-PBP) [8]: two-fold tighter
